Experimental data from doi:10.64898/2026.05.07.723658, “Substrate-dependent crosslinking by the cytochrome P450 from aminopyruvatide biosynthesis” (bioRxiv, 2026).
Where a SMILES comes first, the peptide text is derived from it. The star is where a group is joined. For = O=C*

Tests used:
[1] = target: T1, angiotensin I-converting enzyme (ACE) (Oryctolagus cuniculus, UniProt P12822); test: biochemical; details: 15 min preincubation at room temperature; substrate Abz-FRK(Dnp)-P-OH; 37 °C
T1 construct: purchased Sigma A6778
T1 sequence (P12822 34-1310): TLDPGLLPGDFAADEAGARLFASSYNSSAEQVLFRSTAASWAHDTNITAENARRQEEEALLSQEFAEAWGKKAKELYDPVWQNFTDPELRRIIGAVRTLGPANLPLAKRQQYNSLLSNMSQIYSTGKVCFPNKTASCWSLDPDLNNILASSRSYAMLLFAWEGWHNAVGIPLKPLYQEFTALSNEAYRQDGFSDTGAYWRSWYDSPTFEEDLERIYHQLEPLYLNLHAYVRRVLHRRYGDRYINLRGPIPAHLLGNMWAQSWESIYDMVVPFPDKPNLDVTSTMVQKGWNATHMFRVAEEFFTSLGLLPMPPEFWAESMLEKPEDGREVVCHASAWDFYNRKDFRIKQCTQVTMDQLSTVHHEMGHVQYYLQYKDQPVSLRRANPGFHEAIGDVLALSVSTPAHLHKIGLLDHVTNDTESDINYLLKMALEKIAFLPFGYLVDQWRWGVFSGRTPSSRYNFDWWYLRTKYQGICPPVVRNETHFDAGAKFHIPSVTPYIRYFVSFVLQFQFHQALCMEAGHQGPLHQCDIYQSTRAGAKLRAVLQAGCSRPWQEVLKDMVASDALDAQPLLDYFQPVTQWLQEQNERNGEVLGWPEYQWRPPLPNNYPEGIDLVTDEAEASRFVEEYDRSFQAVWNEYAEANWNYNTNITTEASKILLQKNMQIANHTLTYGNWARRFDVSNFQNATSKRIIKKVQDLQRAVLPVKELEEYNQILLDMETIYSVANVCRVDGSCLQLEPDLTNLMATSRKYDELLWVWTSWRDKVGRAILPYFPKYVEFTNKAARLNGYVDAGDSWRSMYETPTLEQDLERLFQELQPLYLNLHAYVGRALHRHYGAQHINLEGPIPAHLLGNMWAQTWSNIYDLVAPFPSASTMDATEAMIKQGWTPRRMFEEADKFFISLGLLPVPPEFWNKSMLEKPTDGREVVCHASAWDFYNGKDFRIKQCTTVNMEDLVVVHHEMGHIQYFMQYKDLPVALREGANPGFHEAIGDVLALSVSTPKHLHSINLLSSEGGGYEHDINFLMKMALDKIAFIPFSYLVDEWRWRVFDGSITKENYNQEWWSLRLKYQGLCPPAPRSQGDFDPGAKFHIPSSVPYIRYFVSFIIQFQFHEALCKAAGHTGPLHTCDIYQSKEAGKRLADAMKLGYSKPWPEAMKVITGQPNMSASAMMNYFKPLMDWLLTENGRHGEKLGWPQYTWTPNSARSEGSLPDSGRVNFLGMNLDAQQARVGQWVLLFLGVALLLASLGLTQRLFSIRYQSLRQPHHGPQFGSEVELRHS

trypsin = target: T2, trypsin (Sus scrofa, UniProt P00761); format: biochemical
T2 construct: purchased Promega V5111

chymotrypsin = target: T3, chymotrypsin (Bos taurus, UniProt P00766); format: biochemical
T3 construct: purchased Promega V1061

[2] = target: T4, main protease from SARS-CoV-2 virus (Mpro) (Severe acute respiratory syndrome coronavirus 2, UniProt P0DTD1); format: biochemical
T4 construct: Cayman chemical) was used; purchased Cayman chemical 701960

T2 sequence (P00761 9-231): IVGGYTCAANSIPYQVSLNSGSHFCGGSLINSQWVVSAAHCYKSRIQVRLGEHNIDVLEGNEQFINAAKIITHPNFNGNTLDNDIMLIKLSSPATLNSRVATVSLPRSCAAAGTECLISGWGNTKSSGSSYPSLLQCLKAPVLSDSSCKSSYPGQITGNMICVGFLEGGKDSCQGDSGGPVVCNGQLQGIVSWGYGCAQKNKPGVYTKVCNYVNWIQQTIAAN

Compound | conversion by ApyO (cytochrome P450 ApyO) | also measured
NCC(=O)N[C@H]1Cc2ccc(O)c(c2)Oc2ccc(cc2)C[C@@H](C(=O)N[C@@H](CC(=O)O)C(=O)O)NC(=O)[C@H](Cc2ccc(O)cc2)NC1=O (single isomer, unassigned) [L7Y isomer-2] |  | IC50 [1]: 1100 nM
CSCC[C@H](NC=O)C(=O)N[C@@H](CCCNC(=N)N)C(=O)N[C@@H](CCSC)C(=O)NCC(=O)N[C@@H](CCC(=O)O)C(=O)NCC(=O)N[C@@H](Cc1ccc(O)cc1)C(=O)N[C@@H](CC(C)C)C(=O)N[C@@H](Cc1ccc(O)cc1)C(=O)N[C@@H](CC(=O)O)C(=O)O [ApyAct, MRMGEGYLYD] (For-MRMGEGYLYD-OH) | about 70% | 
CSCC[C@H](NC=O)C(=O)N[C@@H](CCCNC(=N)N)C(=O)N[C@@H](CCSC)C(=O)NCC(=O)N[C@@H](CCC(=O)O)C(=O)NCC(=O)N[C@@H](Cc1ccc(O)cc1)C(=O)N[C@@H](Cc1ccccc1)C(=O)N[C@@H](Cc1ccc(O)cc1)C(=O)N[C@@H](CC(=O)O)C(=O)O [L7F] (For-MRMGEGYFYD-OH) | ~ 8% | 
CSCC[C@H](NC=O)C(=O)N[C@@H](CCCNC(=N)N)C(=O)N[C@@H](CCSC)C(=O)NCC(=O)N[C@@H](CCC(=O)O)C(=O)NCC(=O)N[C@@H](Cc1ccc(O)cc1)C(=O)NCC(=O)N[C@@H](Cc1ccc(O)cc1)C(=O)N[C@@H](CC(=O)O)C(=O)O [L7G] (For-MRMGEGYGYD-OH) | ~ 1% | 
CC[C@H](C)[C@H](NC(=O)[C@H](Cc1ccc(O)cc1)NC(=O)CNC(=O)[C@H](CCC(=O)O)NC(=O)CNC(=O)[C@H](CCSC)NC(=O)[C@H](CCCNC(=N)N)NC(=O)[C@H](CCSC)NC=O)C(=O)N[C@@H](Cc1ccc(O)cc1)C(=O)N[C@@H](CC(=O)O)C(=O)O [L7I] (For-MRMGEGYIYD-OH) | ~ 60% | 
CSCC[C@H](NC=O)C(=O)N[C@@H](CCCNC(=N)N)C(=O)N[C@@H](CCSC)C(=O)NCC(=O)N[C@@H](CCC(=O)O)C(=O)NCC(=O)N[C@@H](Cc1ccc(O)cc1)C(=O)N[C@H](C(=O)N[C@@H](Cc1ccc(O)cc1)C(=O)N[C@@H](CC(=O)O)C(=O)O)[C@@H](C)O [L7T] (For-MRMGEGYTYD-OH) | ~ 3% | 
CSCC[C@H](NC=O)C(=O)N[C@@H](CCCNC(=N)N)C(=O)N[C@@H](CCSC)C(=O)NCC(=O)N[C@@H](CCC(=O)O)C(=O)NCC(=O)N[C@@H](Cc1ccc(O)cc1)C(=O)N[C@H](C(=O)N[C@@H](Cc1ccc(O)cc1)C(=O)N[C@@H](CC(=O)O)C(=O)O)C(C)C [L7V] (For-MRMGEGYVYD-OH) | ~ 57% | 
CSCC[C@H](NC=O)C(=O)N[C@@H](CCCNC(=N)N)C(=O)N[C@@H](CCSC)C(=O)NCC(=O)N[C@@H](CCC(=O)O)C(=O)NCC(=O)N[C@@H](Cc1ccc(O)cc1)C(=O)N[C@@H](Cc1c[nH]c2ccccc12)C(=O)N[C@@H](Cc1ccc(O)cc1)C(=O)N[C@@H](CC(=O)O)C(=O)O [L7W] (For-MRMGEGYWYD-OH) | ~ 39% | 
CSCC[C@H](NC=O)C(=O)N[C@@H](CCCNC(=N)N)C(=O)N[C@@H](CCSC)C(=O)NCC(=O)N[C@@H](CCC(=O)O)C(=O)NCC(=O)N[C@@H](Cc1ccc(O)cc1)C(=O)N[C@@H](Cc1ccc(O)cc1)C(=O)N[C@@H](Cc1ccc(O)cc1)C(=O)N[C@@H](CC(=O)O)C(=O)O [L7Y] (For-MRMGEGYYYD-OH) | near quantitative | 
CSCC[C@H](NC=O)C(=O)N[C@@H](CCCCN)C(=O)N[C@@H](CCSC)C(=O)NCC(=O)N[C@@H](CCC(=O)O)C(=O)NCC(=O)N[C@@H](Cc1ccc(O)cc1)C(=O)N[C@@H](CC(C)C)C(=O)N[C@@H](Cc1ccc(O)cc1)C(=O)N[C@@H](CC(=O)O)C(=O)O [R1K] (For-MKMGEGYLYD-OH) | ~ 8% | 
CC(C)C[C@@H]1NC(=O)[C@@H](NC(=O)CN)Cc2ccc(O)c(c2)-c2cc(ccc2O)C[C@@H](C(=O)N[C@@H](C)C(=O)C(=O)O)NC1=O [desmethylaminopyruvatide A] |  | inhibition of trypsin (trypsin): No inhibition; inhibition of chymotrypsin (chymotrypsin): No inhibition; inhibition of Mpro [2]: No inhibition
